Results as given in patent US9775354B2, “Herbicidal composition having improved plant safety” (priority 2013, dated 2017).

Experiments:
Format in all cases: in vivo
[1] = system: kentucky bluegrass (Poa pratensis L.); assay: Test Example 6: chlorosis in kentucky bluegrass after foliar treatment (pot test); conditions: compound A 100 g/ha, compound B not added; seventh day after treatment; degree 0 to 5.0
Description: Degree of chlorosis=0 (equal to the non-treated area) to 5.0 (complete chlorosis)
(§1) Upland field soil was put into a 1/1,000,000 ha pot, and seeds of kentucky bluegrass (Poa pratensis L.) were sown. When the kentucky bluegrass reached 2-leaf stage, predetermined amounts of compound A and isoxadifen-ethyl, mefenpyr-diethyl or cloquintocet-mexyl were diluted with water (in an amount corresponding to 300 L/ha) containing 0.5 vol % of an agricultural adjuvant (tradename: Destiny HC, manufactured by Winfield Solutions, LLC) and applied for foliar treatment by a small sprayer.
On the seventh day after treatment, chlorosis which developed in the kentucky bluegrass was evaluated in the same manner as in the above Test Example 2.

[2] = system: perennial ryegrass (Lolium perenne L.); assay: Test Example 3: chlorosis in perennial ryegrass after foliar treatment (pot test); conditions: compound A 100 g/ha, compound B not added; sixth day after treatment; degree 0 to 5.0
Text: Degree of chlorosis=0 (equal to the non-treated area) to 5.0 (complete chlorosis) Upland field soil was put into a 1/1,000,000 ha pot, and seeds of perennial ryegrass (Lolium perenne L.) were sown. […] Destiny HC, manufactured by Winfield Solutions, LLC.) and applied for foliar treatment by a small sprayer.

[3] = system: wheat (Triticum aestivum L.); assay: Test Example 1: growth inhibition of wheat after foliar treatment (pot test); conditions: compound B not added, seventh day after treatment
Text: Upland field soil was put into a 1/1,000,000 ha pot, and seeds of wheat (Triticum aestivum L.) were sown. […] Destiny HC, manufactured by Winfield Solutions, LLC.) and applied for foliar treatment by a small sprayer. On the seventh day after treatment, the state of growth of the wheat was visually observed to determine the growth inhibition rate (%) in accordance with the following evaluation standards.

[4] = system: timothy (Phleum pratense L.); assay: Test Example 4: growth inhibition of timothy after foliar treatment (pot test); conditions: compound A 100 g/ha, compound B not added; sixth day after treatment
Text: (§2) On the seventh day after treatment, the state of growth of the wheat was visually observed to determine the growth inhibition rate (%) in accordance with the following evaluation standards. The results are shown in Table 1. • Growth inhibition rate (%)=0 (equivalent to the non-treated area) to 100 (complete kill)
as §1, with “timothy (Phleum pratense” for “kentucky bluegrass (Poa pratensis”, “timothy” for “kentucky bluegrass”, “1.6 to 2.0-leaf” for “2-leaf”
On the sixth day after treatment, the state of growth of the timothy was visually observed to evaluate the growth inhibition rate (%) in the same manner as in the above Test Example 1.

[5] = system: bentgrass (Agrostis stolonifera L.); assay: Test Example 5: growth inhibition of bentgrass after foliar treatment (pot test); conditions: compound A 100 g/ha, compound B not added; 24th day after treatment
Text: as §2
as §1, with “turf” for “seeds”, “bentgrass (Agrostis stolonifera” for “kentucky bluegrass (Poa pratensis”, “was put.” for “were sown.”, “bentgrass” for “kentucky bluegrass”, “a height of […],” for “2-leaf stage,”, “and” for “and isoxadifen-ethyl,”
On the 24th day after treatment, the state of growth of the bentgrass was visually observed to determine the growth inhibition rate (%) in the same manner as in the above Test Example 1.

## CCn1ncc(C(=O)c2ccc(S(C)(=O)=O)c(OCCOC)c2C)c1OC(C)OC(=O)OC (stereo not drawn) [Compound A, 1-(1-ethyl-4-(3-(2-methoxyethoxy)-2-methyl-4-(methylsulfonyl)benzoyl)-1H-pyrazol-5-yloxy)ethyl methyl carbonate]
[1]
  Chlorosis in kentucky bluegrass: 1.7
[2]
  Chlorosis in perennial ryegrass: 0.4
[3]; compound A 100 g/ha
  Growth inhibition rate (%) of wheat: 40%
[3]; compound A 150 g/ha
  Growth inhibition rate (%) of wheat: 40%
[4]
  Growth inhibition rate (%) of timothy: 10%
[5]
  Growth inhibition of bentgrass (%): 50%
